# According to patent US9469611B2, “Use of dihydroimidazolones for the treatment of dogs” (BOEHRINGER INGELHEIM VETMEDICA GMBH, priority 2002, dated 2016):
# Values joined by “and” are separate entries in the source; they are usually repeats but may differ in a detail not shown here. Identical values can stand only once. Like-named read-outs stand apart in the source and are kept apart here. Marks after values point to notes of the source that are not given here.
# Legend:
# [1] = tested on: dogs with chronic idiopathic epilepsy; test: add-on therapy in dogs with chronic idiopathic epilepsy not responding to phenobarbital or primidone; type: in vivo, dog
# [2] = plasma concentration of AWD 131-138 (HPLC/mass spectrometry); type: in vivo, dog; conditions: for concentration at 12 h: 12 hours after application
# Protocol: A pharmacokinetic study was performed at the beginning of treatment in 2 dogs with AWD 131-138 monotherapy and in 4 dogs with a combination therapy of AWD 131-138 and phenobarbital or primidone. All 6 dogs received 5 mg/kg bodyweight AWD 131-138. Blood was taken 3 times every 2 hours. […] The same method was used as a compliance control during the follow up examinations. Blood was taken two and twelve hours after oral administration of AWD 131-138.
# In six dogs entering the pilot study with AWD 131-138 a pharmacokinetic study was performed. AWD 131-138 was measured in plasma samples two, four and six hours after application. The initial dosage of AWD 131-138 was 5 mg/kg bodyweight p.o. in all cases.
# [3] = tested on: chemically induced seizure threshold; conditions: dogs, cited from earlier work
# [4] = tested on: benzodiazepine binding site of the GABAA receptor; conditions: broad receptor screen; cited from earlier work
# [5] = tested on: cloned human GABA receptor complexes; conditions: cited from earlier work
# [6] = tested on: benzodiazepine receptor; conditions: co administration of flumazenil; cited from earlier work
# [7] = monkeys; cited from earlier work
# [8] = self administration paradigm; cited from earlier work
# [9] = tested on: calcium channel; conditions: cited from earlier work
# [10] = side effects: owner questionnaire and follow up examinations with blood work
# [11] = tested on: dogs with newly diagnosed idiopathic epilepsy; test: monotherapy in dogs with newly diagnosed idiopathic epilepsy (AWD 131-138 pilot study; retrospective phenobarbital, primidone)
# [12] = grand mal seizures, add-on to phenobarbital or primidone
# [13] = grand mal seizures, on phenobarbital or primidone before add-on
# [14] = median, on phenobarbital/primidone before add-on
# [15] = 12 newly diagnosed dogs, monotherapy
# [16] = add-on, abnormalities already at the beginning of the study
# [17] = grand mal seizures, baseline before monotherapy
# [18] = grand mal seizures, monotherapy
# [19] = median group value, baseline before monotherapy
# [20] = median group value, monotherapy, asterisk = P<0.05 vs before
smiles,measurement,setting,value
"O=C1N=C(N2CCOCC2)CN1c1ccc(Cl)cc1 [AWD 131-138, 1-(4-chlorophenyl)-4-(4-morpholinyl)-2,5-dihydro-1H-imidazol-2-one]",comparison of antiepileptic efficacy between the two add on treatment schedules,[1]; Fisher's exact test,did not indicate any significant difference
same,"decrease of number of seizures per cluster, mean",[1]; add-on,39.5%
same,dogs in which clusters did not occur anymore,[1]; add-on,three
same,dogs in which focal seizures replaced grand mal seizures partially,[1]; add-on,nine
same,dogs with a seizure reduction under 50%,[1]; add-on,4
same,dogs with decreased number of seizures per cluster,[1]; add-on,4
same,dogs with worsening of seizure severity reported by owner,[1]; add-on,One
same,number of dogs with decreased duration of the ictus,[1]; add-on,3
same,number of dogs with shortened postictal phase,[1]; add-on,ten
same,owners reporting subjectively a decrease of seizure severity,[1]; add-on,eight of seventeen
same,"postictal phase during treatment, mean",[1]; add-on,5.5 h
same,dogs that died or were euthanized in status epilepticus,[1]; add-on to phenobarbital or primidone,Nine
same,"shortening of the postictal phase, mean","[1]; add-on, in the dogs with shortening",54%
same,"duration of the ictus during treatment, median",[1]; [12],2.0 min
same,"duration of the ictus during treatment, time range",[1]; [12],0.5 to 5 min
same,"duration of the ictus before treatment, median",[1]; [13],2.0 min
same,"duration of the ictus before treatment, time range",[1]; [13],0.5 to 10 min
same,% reduction of seizures in responders,"[1]; mean ± SEM, add-on to phenobarbital/primidone",47.2 ± 8.8%
same,"Seizure frequency during treatment, all dogs","[1]; median, add-on to phenobarbital/primidone",2.0 seizures/month
same,"Seizure frequency during treatment, without nonresponders","[1]; median, add-on to phenobarbital/primidone, asterisk = P<0.05",1.1* seizures/month
same,"Seizure frequency before treatment, all dogs",[1]; [14],1.9 seizures/month
same,"Seizure frequency before treatment, without nonresponders",[1]; [14],2.4 seizures/month
same,AWD 131-138 plasma concentration,"[2]; 2 hours after 5 mg/kg p.o., AWD 131-138 monotherapy, individual dogs",720.0 ng/mL and 2579.2 ng/mL
same,AWD 131-138 plasma concentration,"[2]; 2 hours after 5 mg/kg p.o., phenobarbital combination therapy, individual dogs",23.27 ng/mL and 1019.5 ng/mL
same,AWD 131-138 plasma concentration,"[2]; 2 hours after 5 mg/kg p.o., primidone combination therapy, individual dogs",2392.3 ng/mL
same,AWD 131-138 plasma concentration,"[2]; 4 hours after 5 mg/kg p.o., AWD 131-138 monotherapy, individual dogs",702.7 ng/mL and 1461.0 ng/mL
same,AWD 131-138 plasma concentration,"[2]; 4 hours after 5 mg/kg p.o., phenobarbital combination therapy, individual dogs",Bld
same,AWD 131-138 plasma concentration,"[2]; 4 hours after 5 mg/kg p.o., primidone combination therapy, individual dogs",1021.5 ng/mL and 2438.7 ng/mL
same,AWD 131-138 plasma concentration,"[2]; 6 hours after 5 mg/kg p.o., AWD 131-138 monotherapy, individual dogs",229.5 ng/mL and 709.0 ng/mL
same,AWD 131-138 plasma concentration,"[2]; 6 hours after 5 mg/kg p.o., phenobarbital combination therapy, individual dogs",bld (bld (below limit of detection): <2 ng/mL)
same,AWD 131-138 plasma concentration,"[2]; 6 hours after 5 mg/kg p.o., primidone combination therapy, individual dogs",448.1 ng/mL and 1289.0 ng/mL
same,concentration at 2 h,"[2]; dog, plasma, oral, 5 mg/kg bodyweight, 2 hours after 5 mg/kg p.o., primidone combination therapy, individual dogs, read-out: AWD 131-138 plasma concentration",1520 ng/mL
same,concentration at 4 h,"[2]; dog, plasma, oral, 5 mg/kg bodyweight, 4 hours after 5 mg/kg p.o., phenobarbital combination therapy, individual dogs",174 ng/mL
same,concentration at 6 h,"[2]; dog, plasma, oral, 5 mg/kg bodyweight, 6 hours after 5 mg/kg p.o., phenobarbital combination therapy, individual dogs",19.5 ng/mL
same,concentration at 2 h,"[2]; dog, plasma, oral, 30 mg/kg, 2 hours after application, 30 mg/kg, non responder dog that died in status epilepticus, read-out: AWD 131-138 plasma concentration",4000 ng/mL
same,concentration at 2 h,"[2]; dog, plasma, oral, 40 mg/kg/day, 2 hours after application, 40 mg/kg per day, two dogs with ataxia on combined phenobarbital treatment, read-out: AWD 131-138 plasma concentration, range",5560 to 10900 ng/mL
same,concentration at 2 h,"[2]; dog, plasma, oral, chronic epilepsy add on, 2 hours after application, 10-15 mg/kg twice a day, seventeen dogs, read-out: AWD 131-138 plasma concentration, range",280 to 10600 ng/mL
same,concentration at 2 h,"[2]; dog, plasma, oral, chronic epilepsy add on, 2 hours after application, read-out: AWD 131-138 plasma concentration, mean",3900 ng/mL
same,concentration at 2 h,"[2]; dog, plasma, oral, chronic epilepsy add on, 2 hours after application, read-out: AWD 131-138 plasma concentration, median",2990 ng/mL
same,concentration at 12 h,"[2]; dog, plasma, oral, chronic epilepsy add on, read-out: AWD 131-138 plasma concentration, mean",644 ng/mL
same,concentration at 12 h,"[2]; dog, plasma, oral, chronic epilepsy add on, read-out: AWD 131-138 plasma concentration, median",179 ng/mL
same,concentration at 12 h,"[2]; dog, plasma, oral, chronic epilepsy add on, read-out: AWD 131-138 plasma concentration, range",7.57 to 5870 ng/mL
same,concentration at 2 h,"[2]; dog, plasma, oral, newly diagnosed dogs, three weeks of treatment, 2 hours after oral application, 10-20 mg/kg twice a day, eleven cases, read-out: AWD 131-138 plasma concentration, range",53.3 to 8620 ng/mL
same,concentration at 12 h,"[2]; dog, plasma, oral, newly diagnosed dogs, three weeks, twelve dogs, read-out: AWD 131-138 plasma concentration, range",5.4 to 1140 ng/mL
same,concentration at 12 h,"[2]; dog, plasma, oral, newly diagnosed dogs, three weeks, read-out: AWD 131-138 plasma concentration, mean",378 ng/mL
same,concentration at 12 h,"[2]; dog, plasma, oral, newly diagnosed dogs, three weeks, read-out: AWD 131-138 plasma concentration, median",218 ng/mL
same,concentration at 2 h,"[2]; dog, plasma, po, newly diagnosed dogs, three weeks, 2 hours after oral application, read-out: AWD 131-138 plasma concentration, mean",3360 ng/mL
same,concentration at 2 h,"[2]; dog, plasma, po, newly diagnosed dogs, three weeks, 2 hours after oral application, read-out: AWD 131-138 plasma concentration, median",2580 ng/mL
same,increase of seizure threshold (PTZ convulsive threshold),[3]; 20 mg/kg p.o.,39%
same,increase of seizure threshold (PTZ convulsive threshold),[3]; 40 mg/kg p.o.,118%
same,affinity for the benzodiazepine binding site,[4],very low affinity
same,mode of action at the benzodiazepine receptor,[5]; different cloned human GABA receptor complexes,low affinity partial agonist at the benzodiazepine receptor without subtype selectivity
same,maximal stimulation,[5]; of the effect of diazepam,20%
same,antagonism of anticonvulsive activity by flumazenil,[6],partly antagonised
same,antagonism of anxiolytic activity by flumazenil,[6],fully antagonised
same,identified as benzodiazepine like,[7],did not identify AWD 131-138 as benzodiazepine like
same,substitution for cocaine,[8],did not substitute for cocaine
same,calcium channel blocking effect,[9],weak calcium channel blocking effect
same,sedation,[10]; [15],no sedation occurred
same,tolerability,[10]; [15],exceptionally well tolerated
same,hematology and blood chemistry,"[10]; 12 newly diagnosed dogs, monotherapy, follow up",No abnormalities were found
same,"polyphagia, cases","[10]; 12 newly diagnosed dogs, monotherapy, in 4 dogs only at the beginning",7 (58%)
same,tolerability,"[10]; 17 dogs with chronic epilepsy, add-on",very well tolerated
same,"hematology (red, white and differential cell count)","[10]; 17 dogs with chronic epilepsy, add-on, follow up",No abnormalities were found
same,"polyphagia, cases","[10]; 17 dogs with chronic epilepsy, add-on, in 7 dogs only at the beginning",10 (59%)
same,"elevation of liver enzymes (ALT, GLDH and AP)",[10]; AWD 131-138 monotherapy,not observed
same,dogs with ataxia in the hind limbs and apathy 2 4 hours after application,"[10]; add-on, 40 mg/kg per day, combined phenobarbital with serum concentrations 56.6 58.9 μg/mL",Two
same,dogs with elevation of ALT,[10]; [16],1
same,dogs with elevation of AP,[10]; [16],6
same,dogs with elevation of GLDH,[10]; [16],3
same,comparison of antiepileptic efficacy between monotherapy treatment groups,[11]; ANOVA,did not indicate any significant differences
same,"duration of the ictus before treatment, median",[11]; [17],3.0 min
same,"duration of the ictus before treatment, time range",[11]; [17],0.5 to 10 min
same,"duration of the ictus during treatment, median",[11]; [18],2.5 min
same,"duration of the ictus during treatment, time range",[11]; [18],0.5 to 10 min
same,% reduction of seizures in responders,"[11]; mean ± SEM, monotherapy",49.8 ± 11.3%
same,"Seizure frequency before treatment, all dogs",[11]; [19],1.6 seizures/month
same,"Seizure frequency before treatment, without nonresponders",[11]; [19],1.7 seizures/month
same,"Seizure frequency during treatment, all dogs",[11]; [20],0.71 seizures/month
same,"Seizure frequency during treatment, without nonresponders",[11]; [20],0.55* seizures/month
same,dogs that died or were euthanized in status epilepticus,[11]; monotherapy,One
same,dogs with focal seizures instead of grand mal seizures during treatment,[11]; monotherapy,two
same,dogs with reduced seizure number per cluster,[11]; monotherapy,4
same,number of dogs with decreased duration of the ictus,[11]; monotherapy,five
same,number of dogs with shortened postictal phase,[11]; monotherapy,four
same,owners reporting subjectively a decrease of seizure severity,[11]; monotherapy,nine of 12
same,"reduction of seizure number per cluster, mean",[11]; monotherapy,45.3%
same,dogs in which clusters no longer developed,"[11]; monotherapy, dogs with clusters before treatment",One
same,"decrease of the duration of the ictus, mean","[11]; monotherapy, in the dogs with a decrease",38%
